Assay results taken from patent US5610174A, “Use of α1A -selective adrenoceptor agonists for the treatment of urinary incontinence” (priority 1995, dated 1997).

Experiments:
[1] = target: T1, human histamine H2 receptor (Homo sapiens, UniProt P25021); experiment: Radioligand binding at cloned human histamine H2; conditions: [3H]tiotidine
T1 construct: expressed in transfected cells; host or cells: COS-7 (plasmid pcEXV-H2, ATCC 75345)
Experimental: Human Histamine H2 Receptor
The coding sequence of the human H2 receptor was obtained from a human placenta genomic library, and cloned into the cloning site of PCEXV-3 eukaryotic expression vector. The plasmid DNA for the H2 receptor is designated pcEXV-H2, and was deposited on Nov. 6, 1992 under ATCC Accession No. 75345. This construct was transfected into COS-7 cells by the DEAE-dextran method. Cells were harvested after 72 hours and lysed by sonication in 5 mM Tris-HCl, 5 mM EDTA, pH 7.5. The cell lysates were centrifuged at 1000 rpm for 5 min at 4° C., and the supernatant was centrifuged at 30,000×g for 20 min at 4° C. The pellet was suspended in 37.8 mM NaHPO4, 12.2 mM K2PO4, pH 7.5. The binding of the histamine H2 antagonist [3H] tiotidine (5 nM, specific activity: about 70 Ci/mM) was done in a final volume of 0.25 ml and incubated at room temperature for 60 min. Nonspecific binding was determined in the presence of 10 μM histamine. The bound radioligand was separated by filtration through GF/B filters using a cell harvester.

α2-adrenoceptors = experiment: Activity at human α2-adrenoceptors (overall statement); assay type: cell-based; conditions: result in words
Experimental: α2 -Adrenoceptor-Mediated Inhibition of Forskolin Stimulated Adenylyl Cyclase
The agonist activity of test compounds was assayed by measuring their ability to inhibit adenylyl cyclase in cells stably transfected with each of the three cloned human α2 -adrenoceptors. LM(tk-) cells expressing the α2A - or the α2C -, as well as Y1 cells expressing the α2B -adrenoceptor were used. […] The formation of cyclic AMP was measured in cultures incubated with DMEM containing 1 mM theophylline. Twelve concentrations of the test compounds (from 10 pM to 100 μM) were added to the incubation medium and incubated at 37° C. for 20 min. Following this incubation step, 10 μM forskolin was added to stimulate the formation of cyclic AMP, and the cultures were incubated for another 10 min. The reaction was stopped by replacing the incubation medium with 100 mM HCl . The intracellular levels of cyclic AMP were measured by radioimmunoassay. The data from concentration-response curves was fitted to a four-parameter logistic equation, by non-linear regression analysis, to determine the pEC50 and intrinsic activity.

[2] = target: T2, human urethra (α1-adrenoceptor) (Homo sapiens, UniProt P35348); experiment: Contractile study in isolated human male urethra; conditions: versus phenylephrine-induced contraction; read-out: pKB Human Urethra Male (converted)
T2 construct: Tissue samples from the proximal urethra of male humans; from tissue; host or cells: human male proximal urethra strips
T2 sequence (P35348 1-466): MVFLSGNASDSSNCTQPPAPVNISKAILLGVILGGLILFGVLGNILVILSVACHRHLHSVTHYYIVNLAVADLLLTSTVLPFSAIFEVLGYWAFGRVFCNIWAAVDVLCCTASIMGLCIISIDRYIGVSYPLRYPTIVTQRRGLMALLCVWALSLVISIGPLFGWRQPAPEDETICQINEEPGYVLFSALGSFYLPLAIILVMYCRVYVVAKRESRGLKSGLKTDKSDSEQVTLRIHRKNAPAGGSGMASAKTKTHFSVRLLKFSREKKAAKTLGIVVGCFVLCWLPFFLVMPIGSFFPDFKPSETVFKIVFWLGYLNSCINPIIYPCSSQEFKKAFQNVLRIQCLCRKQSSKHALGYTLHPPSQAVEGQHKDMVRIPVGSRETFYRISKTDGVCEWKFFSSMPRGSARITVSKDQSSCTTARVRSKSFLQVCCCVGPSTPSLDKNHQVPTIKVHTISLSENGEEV
Description: (§1) In addition, similar studies were done using bladder neck tissue from female dogs. In order to identify the specific receptor subtype in each tissue, the pharmacological profile was compared to the profiles for these same drugs at the cloned human α1A, α1B, or α1C subtypes.
(§2) Tissue samples from the proximal urethra of male humans and male and female rabbits, as well as tissue samples from both the proximal urethra and bladder neck of male and female dogs were cut into transverse strips (3×10 mm) and suspended under 0.5 g tension in Krebs' physiological buffer at 37° C. To determine agonist potency (pEC50 )and antagonist affinity constants (pKB), concentration-effect curves to the non-selective agonist phenylepherine were constructed in the absence and in the presence of increasing concentrations of the antagonist. Up to four sequential curves were constructed in each tissue. Antagonists were allowed to equilibrate for 1h before each concentration-effect curve, and the drugs were completely washed out in between successive curves. In each experiment, one tissue served as a "time control", in which no antagonist was added so that changes in tissue sensitivity could be assessed as a function of time. […] In instances in which a single concentration of antagonist was used, pKB values were determined by the equation: […], where CR is defined as the ratio of the agonist EC50 in the presence of the antagonist to that in the absence of the antagonist.

[3] = target: T3, rabbit urethra, male (α1-adrenoceptor) (Oryctolagus cuniculus, UniProt O02824); experiment: Contractile study in isolated male rabbit urethra; conditions: versus phenylephrine-induced contraction
T3 sequence (O02824 1-466): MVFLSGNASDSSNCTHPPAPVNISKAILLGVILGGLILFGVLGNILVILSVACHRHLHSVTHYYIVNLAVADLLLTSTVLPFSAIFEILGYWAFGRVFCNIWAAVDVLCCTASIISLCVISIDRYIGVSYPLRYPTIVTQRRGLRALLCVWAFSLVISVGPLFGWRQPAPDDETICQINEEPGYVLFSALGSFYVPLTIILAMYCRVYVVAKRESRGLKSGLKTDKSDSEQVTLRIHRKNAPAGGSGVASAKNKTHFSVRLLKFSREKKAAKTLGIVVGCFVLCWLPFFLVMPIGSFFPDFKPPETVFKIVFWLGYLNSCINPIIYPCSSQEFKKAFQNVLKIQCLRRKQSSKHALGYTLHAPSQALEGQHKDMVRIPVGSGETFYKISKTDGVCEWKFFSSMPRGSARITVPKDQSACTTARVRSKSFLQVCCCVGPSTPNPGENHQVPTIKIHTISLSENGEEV
Description: as §1, §2

[4] = target: T4, rabbit urethra, female (α1-adrenoceptor) (Oryctolagus cuniculus, UniProt O02824); experiment: Contractile study in isolated female rabbit urethra; conditions: versus phenylephrine-induced contraction; read-out: pKB Rabbit Urethra Female (converted)
T4 construct: proximal urethra of male humans and male and female rabbits; from tissue; host or cells: rabbit proximal urethra strips, male or female
T4 sequence (O02824 1-466): T3 sequence (O02824 1-466)
Description: as §1, §2

T1 sequence (P25021 whole entry): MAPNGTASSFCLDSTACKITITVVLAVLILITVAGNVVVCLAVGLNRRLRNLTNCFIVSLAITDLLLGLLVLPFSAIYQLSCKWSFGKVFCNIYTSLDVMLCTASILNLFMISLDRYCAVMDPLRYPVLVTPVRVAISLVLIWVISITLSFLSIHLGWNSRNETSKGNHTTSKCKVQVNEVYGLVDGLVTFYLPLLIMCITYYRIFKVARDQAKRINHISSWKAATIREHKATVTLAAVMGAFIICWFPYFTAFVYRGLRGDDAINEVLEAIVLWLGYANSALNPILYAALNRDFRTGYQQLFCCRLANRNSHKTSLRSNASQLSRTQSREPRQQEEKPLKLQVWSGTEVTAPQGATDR

Compound | activity at α2-adrenoceptors (α2-adrenoceptors) | Kb [2] [nM] | pKB Rabbit Urethra Male [3] | Kb [4] [nM] | also measured
CNCCc1ccc(O)c(NS(C)(=O)=O)c1 [SK&F 102652] | significant activity |  |  |  | pKi H2 [1]: 4.6
CS(=O)(=O)Nc1c(O)ccc2c1CCCC2C1=NCCN1 (racemic) [Compound A-61603, (±)-N-[5-(4,5-Dihydro-1H-imidazol-2-yl)-2-hydroxy-5,6,7,8-tetra-hydronaphthalen-1-yl]methanesulfonamide] | significant activity |  |  |  | 
COc1ccccc1N1CCN(CCCNc2c(C)c(=O)n(C)c(=O)n2C)CC1 [Compound 5-MU] |  | 1.58 | 7.8 | 39.8 | 
COc1cc2c(cc1OC)CN(c1cc(N)c3cc(OC)c(OC)cc3n1)CC2 [Abanoquil, 2-(6,7-Dimethoxy-3,4-dihydro-1H-isoquinolin-2-yl)-6,7-dimethoxyquinolin-4-ylamine hemifumarate hydrate] |  | 0.251 | 8.7 | 2 | 
COc1ccc(SC)c2c1C[C@@H]1[C@@H](C2)OCCN1C (relative stereo) [SDZ NVI-085, (±)-trans-4-Methyl-6-methoxy-9-thiomethoxy-3,4,4a, 5,10,10a-hexahydro-2H-naphtho[2,3-b][1,4]oxazine] |  |  |  |  | Ki ([1]; read-out: pKi H2 (converted)): 6310 nM
